Patent publication US9487489B2, “Halogen-substituted pyrazole derivatives as pest-control agents” (BAYER CROPSCIENCE AKTIENGESELLSCHAFT, priority 2013, dated 2016)

Experiments:
[1] = system: engorged adult female cattle ticks (Boophilus microplus); assay: Boophilus microplus injection test (BOOPMI Inj); format: in vivo; settings: application rate 20 μg/animal; injection into abdomen; assessed after 7 days
Experimental: C. Boophilus microplus-injection Test (BOOPMI Inj)
(§1) Solvent: dimethyl sulphoxide
To produce a suitable preparation of active compound, 10 mg of active compound are mixed with 0.5 ml of solvent, and the concentrate is diluted with solvent to the desired concentration.
1 μl of the active compound solution is injected into the abdomen of 5 engorged adult female cattle ticks (Boophilus microplus). The animals are transferred into dishes and kept in a climate-controlled room.
The activity is assessed after 7 days by laying of fertile eggs. Eggs whose fertility is not visible from the outside are stored in a climate-controlled cabinet until the larvae hatch after about 42 days. An efficacy of 100% means that none of the ticks has laid any fertile eggs; 0% means that all eggs are fertile.

[2] = system: adult cat fleas (Ctenocephalides felis); assay: Ctenocephalides felis oral test (CTECFE); format: in vivo; settings: application rate 100 ppm in citrated cattle blood; after 2 days
Experimental: D. Ctenocephalides felis-oral Test (CTECFE)
as §1
To produce a suitable preparation of active compound, 10 mg of active compound are mixed with 0.5 ml of dimethyl sulphoxide. Dilution with citrated cattle blood gives the desired concentration.
About 20 unfed adult cat fleas (Ctenocephalides felis) are placed into a chamber which is closed at the top and bottom with gauze. A metal cylinder whose bottom end is closed with a parafilm is placed onto the chamber. The cylinder contains the blood/active ingredient preparation, which can be imbibed by the fleas through the parafilm membrane.
After 2 days, the kill in % is determined 100% means that all of the fleas have been killed; 0% means that none of the fleas have been killed.

[3] = system: L1 larvae of the Australian sheep blowfly (Lucilia cuprina); assay: Lucilia cuprina test (LUCICU); format: in vivo; settings: application rate 100 ppm; after 2 days
Experimental: E. Lucilia cuprina Test (LUCICU)
as §1
To produce a suitable preparation of active compound, 10 mg of active compound are mixed with 0.5 ml of dimethyl sulphoxide, and the concentrate is diluted with water to the desired concentration.
About 20 L1 larvae of the Australian sheep blowfly (Lucilia cuprina) are transferred into a test vessel containing minced horsemeat and the active compound preparation of the desired concentration.
After 2 days, the kill in % is determined 100% means that all of the larvae have been killed; 0% means that none of the larvae have been killed.

[4] = system: larvae of the mustard beetle (Phaedon cochleariae); assay: Phaedon cochleariae spray test (PHAECO); format: in vivo; settings: Chinese cabbage leaf discs, after 7 days
In short: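 Kill of mustard beetle larvae is read as % mortality 7 days after spraying. Spray liquid: active compound in acetone plus dimethylformamide, brought up with water holding 1000 ppm alkylaryl polyglycol ether emulsifier and diluted further in emulsifier-water.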

[5] = system: greenhouse red spider mite (Tetranychus urticae); assay: Tetranychus urticae spray test, OP-resistant (TETRUR); format: in vivo; settings: bean leaf discs, after 6 days
Experimental: J. Tetranychus urticae-spray Test, OP-Resistant (TETRUR)
(§2) Solvent: 78.0 parts by weight of acetone
(§3) • 1.5 parts by weight of dimethylformamide Emulsifier: alkylaryl polyglycol ether
(§4) To produce a suitable preparation of active compound, 1 part by weight of active compound is dissolved using the stated parts by weight of solvent and made up with water comprising an emulsifier concentration of 1000 ppm until the desired concentration is reached. To produce further test concentrations, the preparation is diluted with emulsifier-containing water.
Discs of bean leaves (Phaseolus vulgaris) which are infested by all stages of the greenhouse red spider mite (Tetranychus urticae) are sprayed with an active compound preparation of the desired concentration.
After 6 days, the efficacy in % is determined. 100% means that all of the spider mites have been killed; 0% means that none of the spider mites have been killed.

[6] = logP determination by HPLC on a reversed-phase column (C18), EEC Directive 79/831 Annex V.A8; format: physicochemical
In short: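 Per EEC 79/831 Annex V.A8, values derive from HPLC retention at 2.0 ml/min and 55° C on a 50*4.6 C18 column. The 10→95% acetonitrile gradient (0.1%/0.09% formic acid) lasted 4.25 min plus a 1.25 min hold; mass detection was by MSD.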

[7] = system: caterpillars of the armyworm (Spodoptera frugiperda); assay: Spodoptera frugiperda spray test (SPODFR); format: in vivo; settings: maize leaf discs, after 7 days
Experimental: I. Spodoptera frugiperda-spray Test (SPODFR)
as §2, §3, §4
Leaf discs of maize (Zea mays) are sprayed with an active compound preparation of the desired concentration and, after drying, populated with caterpillars of the armyworm (Spodoptera frugiperda).
After 7 days, the efficacy in % is determined. 100% means that all of the caterpillars have been killed; 0% means that none of the caterpillars have been killed.

[8] = system: adult cat fleas (Ctenocephalides felis); assay: Ctenocephalides felis in vitro contact test with adult cat fleas (T1); settings: after 48 h
In short: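 Adult cat fleas (Ctenocephalides felis), 5-10 per tube, were exposed to the inner surface of 25 ml test tubes coated with compound in acetone. Tubes were incubated lying flat under ambient conditions. Efficacy was then read by standing tubes upright and knocking the fleas to the floor. Fleas that stayed motionless or moved uncoordinatedly counted as dead or moribund, where 100% means all fleas dead or moribund and 0% means none harmed.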

[9] = HPLC on reversed-phase column (C18), acetonitrile/water with formic acid, EEC Directive 79/831 Annex V.A8

SMILES	efficacy (laying of fertile eggs) [1]	efficacy (kill in %) [2]	efficacy (kill in %) [3]	efficacy in % ([4]; application rate 500 g/ha)	efficacy in % ([5]; application rate 100 g/ha)	logP [6, 9]	efficacy in % ([4]; application rate 100 g/ha)	efficacy in % ([7]; application rate 100 g/ha)	efficacy in % ([7]; application rate 500 g/ha)	efficacy in % ([5]; application rate 500 g/ha)	efficacy (dead or moribund fleas) ([8]; application rate 1 μg/cm^2)	efficacy (dead or moribund fleas) ([8]; application rate 5 μg/cm^2)	logP ([6]; HPLC, reversed-phase C18, acetonitrile (0.1% formic acid)/water (0.09% formic acid) gradient)
COc1cc(C(=O)NC2(C#N)CC2)cc(-c2cnn(-c3c(C(F)(F)F)c(C(F)(F)C(F)(F)F)nn3C)c2)c1 [Ic-63]	100%	95%	100%	100%	100%	–	–	–	–	–	–	–	–
Cn1nc(C(F)(F)C(F)(F)F)c(C(F)(F)F)c1-n1cc(-c2cccc(C(=O)NCc3ccccc3)c2)cn1 [Ic-17]	100%	90%	100%	–	100%	4.31	100%	100%	–	–	–	–	–
Cn1nc(C(F)(F)F)c(C#N)c1-n1cc(-c2ccc(Cl)c(C(=O)NC3(C#N)CC3)c2)cn1 [Ic-53]	100%	100%	100%	–	–	2.92	100%	–	–	–	–	–	–
Cn1nc(C(F)(F)C(F)(F)F)c(C(F)(F)F)c1-n1cc(-c2cc(OC(F)(F)F)cc(C(=O)NC3CC3)c2)cn1 [Ic-74]	100%	100%	100%	100%	–	–	–	–	100%	–	–	–	–
Cc1c(-c2ccc(Cl)c(C(=O)NC3CC3)c2)cnn1-c1c(C(F)(F)F)c(C(F)(F)C(F)(F)F)nn1C [Ic-13]	100%	100%	100%	–	90%	3.88	100%	100%	–	–	–	–	–
COCC(C)NC(=O)c1cc(-c2cnn(-c3c(C(F)(F)F)c(C(F)(F)C(F)(F)F)nn3C)c2)ccc1Cl (stereo not shown) [Ic-165]	100%	100%	100%	100%	–	–	–	–	100%	100%	100%	100%	–
Cn1nc(C(F)(F)C(F)(F)F)c(C(F)(F)F)c1-n1cc(-c2ccc(Cl)c(C(=O)Nc3cccnc3)c2)cn1 [Ic-149]	100%	100%	100%	100%	–	–	–	–	100%	100%	80%	100%	–
CON=Cc1c(C(F)(F)F)nn(C)c1-n1cc(-c2ccc(Cl)c(C(=O)NC3(C#N)CC3)c2)cn1 (mixture of isomers) [Ic-99]	100%	100%	80%	–	100%	3.09	100%	–	–	–	–	–	–
Cn1nc(C(F)(F)C(F)(F)F)c(C(F)(F)F)c1-n1cc(-c2ccc(Cl)c(C(=O)NCc3cc[nH]n3)c2)cn1 [Ic-157]	100%	90%	100%	100%	–	–	–	–	100%	100%	–	–	–
Cn1nc(C(F)(F)C(F)(F)F)c(C(F)(F)F)c1-n1ccc(-c2ccc(Cl)c(C(=O)NC3CC3)c2)n1 [Id-2]	100%	100%	95%	–	–	–	100%	100%	–	–	–	–	3.97
CC(C)C(C)NC(=O)c1cc(-c2cnn(-c3c(C(F)(F)F)c(C(F)(F)C(F)(F)F)nn3C)c2)ccc1Cl (stereo not shown) [Ic-137]	100%	100%	100%	83%	–	–	–	–	–	100%	–	–	–
Cc1cc(C(=O)NC2(C#N)CC2)cc(-c2cnn(-c3c(C(F)(F)F)c(C(F)(F)C(F)(F)F)nn3C)c2)c1 [Ic-56]	100%	100%	100%	100%	90%	–	–	–	–	–	–	–	–
Cn1nc(C(F)(F)C(F)(F)F)c(C(F)(F)F)c1-n1cc(-c2ccc(Cl)c(C(=O)Nc3cc[nH]n3)c2)cn1 [Ic-150]	100%	100%	100%	100%	–	–	–	–	100%	100%	–	–	–
O=C(NC1CC1)c1cc(-c2cnn(-c3c(C(F)(F)F)c(C(F)(F)C(F)(F)F)nn3-c3ccc([N+](=O)[O-])cc3)c2)ccc1Cl [Ic-8]	100%	100%	100%	–	–	4.54	–	–	–	–	–	–	–
Cn1nc(C(F)(F)C(F)(F)F)c(C(F)(F)F)c1-n1cc(-c2cccc(C(N)=O)c2)cn1 [Ic-35]	80%	100%	100%	–	–	3.1	100%	–	–	–	–	–	–
Cn1nc(C(F)(F)C(F)(F)F)c(C(F)(F)F)c1-n1cc(-c2ccc(Cl)c(C(=O)NC3CC3)c2)c(C(F)(F)F)n1 [Ic-4]	100%	100%	100%	–	–	4.51	–	–	–	–	–	–	–
Cn1nc(C(F)(F)C(F)(F)F)c(C(F)(F)F)c1-n1cc(-c2cc(OC(F)(F)F)cc(C(=O)NC3(C#N)CC3)c2)cn1 [Ic-75]	100%	100%	100%	100%	–	–	–	–	100%	–	–	–	–
